pIC50: −log10 of the molar value. Read-outs that look alike come from different tables or passages of the source.
Experiments:
CDK4/cyclin D1 = CDK4/cyclin D1 (Homo sapiens (Human), UniProt P11802); assay: CDK4/Cyclin D1 enzymatic activity assay (Lance TR-FRET); assay type: biochemical; settings: for pIC50: Table 2, 3 μM ATP, read-out: CDK4; for IC50: Table 4, read-out: IC50 (μM) CDK4
Method in brief: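 Recombinant His6-CDK4/GST-cyclin D1 (Sf21-expressed), 0.3 nM, phosphorylated 175 nM pRb152 with 3 μM ATP in HEPES pH 7.5, Mg/Mn buffer, 2% DMSO, 60 min at room temperature. Compound range 0.005-10 μM. EDTA-quenched; pRb S780 phosphorylation read by TR-FRET (Eu anti-rabbit/APC-streptavidin) for IC50.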

CDK1/cyclin B = CDK1/cyclin B (Homo sapiens (Human), UniProt P06493); assay: CDK1/Cyclin B enzymatic activity assay (IMAP-FP); assay type: biochemical; settings: for pIC50: Table 2, 20 μM ATP, read-out: CDK1; for IC50: Table 4, read-out: IC50 (μM) CDK1
Sequence of CDK1/cyclin B (P06493 whole entry, species assumed): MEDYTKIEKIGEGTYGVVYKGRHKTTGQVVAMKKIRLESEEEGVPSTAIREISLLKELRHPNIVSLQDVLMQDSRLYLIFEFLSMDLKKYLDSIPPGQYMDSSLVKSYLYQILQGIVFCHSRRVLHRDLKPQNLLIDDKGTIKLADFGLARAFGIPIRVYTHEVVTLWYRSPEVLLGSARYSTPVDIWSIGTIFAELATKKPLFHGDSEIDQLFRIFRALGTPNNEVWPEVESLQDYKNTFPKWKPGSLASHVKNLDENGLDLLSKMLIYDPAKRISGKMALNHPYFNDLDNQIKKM
Sequence of CDK1/cyclin B (P14635 whole entry partner, species assumed): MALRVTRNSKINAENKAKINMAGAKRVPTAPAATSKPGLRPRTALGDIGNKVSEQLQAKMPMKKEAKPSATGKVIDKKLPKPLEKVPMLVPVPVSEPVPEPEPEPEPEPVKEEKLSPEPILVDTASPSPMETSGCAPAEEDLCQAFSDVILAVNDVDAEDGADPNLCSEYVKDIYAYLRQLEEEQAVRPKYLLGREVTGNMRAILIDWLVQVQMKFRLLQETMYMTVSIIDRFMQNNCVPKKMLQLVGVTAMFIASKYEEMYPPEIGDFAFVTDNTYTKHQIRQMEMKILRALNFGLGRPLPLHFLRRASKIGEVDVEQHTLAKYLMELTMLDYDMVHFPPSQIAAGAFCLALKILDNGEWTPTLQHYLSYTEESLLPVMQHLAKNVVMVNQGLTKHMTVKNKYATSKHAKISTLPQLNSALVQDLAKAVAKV
From the text: A 384-well microtiter IMAP-FPT™ (Molecular Devices Trade Mark Technology) endpoint assay was used for CDK1/cyclin B kinase activity measurements. The same assay was used for IC50 determination of small molecule inhibitors.

CDK2/cyclin A = CDK2/cyclin A (Homo sapiens (Human), UniProt P24941); assay: CDK2/Cyclin A enzymatic activity assay (IMAP-FP); assay type: biochemical; settings: for pIC50: Table 2, read-out: CDK2; for IC50: Table 4, read-out: IC50 (μM) CDK2
cell cycle = cell cycle analysis; assay type: cell-based; settings: up to 10 uM
pRb negative cells = assay: cell proliferation of pRb negative cells; assay type: cell-based; settings: high concentrations

Sequence of CDK4/cyclin D1 (P11802 whole entry): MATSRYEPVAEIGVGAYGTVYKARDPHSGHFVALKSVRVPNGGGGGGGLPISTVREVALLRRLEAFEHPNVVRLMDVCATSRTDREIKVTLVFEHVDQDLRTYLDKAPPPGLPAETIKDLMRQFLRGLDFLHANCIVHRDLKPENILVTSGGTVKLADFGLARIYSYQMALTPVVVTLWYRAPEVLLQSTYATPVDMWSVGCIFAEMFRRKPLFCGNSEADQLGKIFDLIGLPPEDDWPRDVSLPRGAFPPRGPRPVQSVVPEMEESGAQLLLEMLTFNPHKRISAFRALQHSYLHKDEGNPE
Sequence of CDK4/cyclin D1 (P24385 whole entry partner): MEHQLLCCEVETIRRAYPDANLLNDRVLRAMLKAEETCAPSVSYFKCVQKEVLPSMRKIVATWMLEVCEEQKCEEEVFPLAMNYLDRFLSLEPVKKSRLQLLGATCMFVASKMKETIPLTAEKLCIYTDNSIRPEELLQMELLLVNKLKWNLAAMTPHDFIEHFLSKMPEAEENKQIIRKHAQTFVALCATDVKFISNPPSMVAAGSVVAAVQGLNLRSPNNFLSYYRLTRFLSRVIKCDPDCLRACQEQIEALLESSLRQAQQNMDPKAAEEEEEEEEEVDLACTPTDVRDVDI

pIC50 (CDK4/cyclin D1) | pIC50 (CDK1/cyclin B) | pIC50 (CDK2/cyclin A) | IC50 (CDK4/cyclin D1) [µM] | IC50 (CDK1/cyclin B) [µM] | IC50 (CDK2/cyclin A) [µM] | SMILES | cell cycle arrest phase (cell cycle) | inhibition of cell proliferation of pRb negative cells (pRb negative cells)
7.00 to 8.00 | < 4.82 | < 4.82 | – | – | – | CCC(C)CN1CCN(c2ccc(Nc3ncc4cc(C(=O)N(C)C)n(C5CCCC5)c4n3)nc2)CC1 (centres unmarked) [Example 99, 7-Cyclopentyl-2-{5-[4-(2-methyl-butyl)-piperazin-1-yl]-pyridin-2-ylamino}-7H-pyrrolo[2,3-d]pyrimidine-6-carboxylic acid dimethylamide] | – | –
6.00 to 7.00 | < 4.82 | < 4.82 | – | – | – | COC(=O)C(C)N1CCN(c2ccc(Nc3ncc4cc(C(=O)N(C)C)n(C5CCCC5)c4n3)nc2)CC1 (centres unmarked) [Example 101, 2-{4-[6-(7-Cyclopentyl-6-dimethylcarbamoyl-7H-pyrrolo[2,3-d]pyrimidin-2-ylamino)-pyridin-3-yl]-piperazin-1-yl}-propionic acid methyl ester] | – | –
7.00 to 8.00 | < 4.82 | < 4.82 | – | – | – | CC(C(=O)O)N1CCN(c2ccc(Nc3ncc4cc(C(=O)N(C)C)n(C5CCCC5)c4n3)nc2)CC1 (centres unmarked) [Example 103, 2-{4-[6-(7-Cyclopentyl-6-dimethylcarbamoyl-7H-pyrrolo[2,3-d]pyrimidin-2-ylamino)-pyridin-3-yl]-piperazin-1-yl}-propionic acid] | – | –
6.00 to 7.00 | < 4.82 | < 4.82 | – | – | – | CN(C)C(=O)c1cc2cnc(Nc3ccc(N4CCOCC4)cn3)nc2n1C1CCCC1 [Example 110, 7-Cyclopentyl-2-(5-morpholin-4-yl-pyridin-2-ylamino)-7H-pyrrolo[2,3-d]pyrimidine-6-carboxylic acid dimethylamide] | – | –
– | – | – | 0.005 | > 1.6 | > 1.4 | CN(C)C(=O)c1cc2cnc(Nc3ccc(N4CCNCC4)cc3)nc2n1C1CCCC1 [Example 200, reference compound] | starts to induce G2/M phase blocks at 1 and 10 uM concentrations | does inhibit the cell proliferation of pRb negative cells at high concentrations
– | – | – | 0.11 | 7.5 | 10.3 | O=C(c1cc2cnc(Nc3ccc(N4CCNCC4)cc3)nc2n1C1CCCC1)N1CCC1 [Example 201, reference compound] | – | –
– | – | – | 2.5 | > 15 | > 15 | Cc1c(C(=O)N(C)C)n(C2CCCC2)c2nc(Nc3ccc(N4CCNCC4)cn3)ncc12 [Example 202, reference compound] | – | –

SMILES | pIC50 (CDK4/cyclin D1) | pIC50 (CDK1/cyclin B) | pIC50 (CDK2/cyclin A) | IC50 (CDK4/cyclin D1) [µM] | IC50 (CDK1/cyclin B) [µM] | IC50 (CDK2/cyclin A) [µM] | cell cycle arrest phase (cell cycle) | inhibition of cell proliferation of pRb negative cells (pRb negative cells)
CN(C)C(=O)c1cc2cnc(Nc3ccc(C4CCN(CCO)CC4)cn3)nc2n1C1CCCC1 [Example 100, 7-Cyclopentyl-2-[1′-(2-hydroxy-ethyl)-1′,2′,3′,4′,5′,6′-hexahydro-[3,4]bipyridinyl-6-ylamino]-7H-pyrrolo[2,3-d]pyrimidine-6-carboxylic acid dimethylamide] | 7.00 to 8.00 | < 4.82 | < 4.82 | – | – | – | – | –
